From US20200319197A1, “Biomarkers of Preterm Birth” (Carmentix PTE. Ltd., priority 2017, published 2020)
Read-outs that look alike come from different tables or passages of the source.

Key:
GGH [1] = experiment: GGH in medium of Ect1 post-H2O2 treatment, ELISA; conditions: for Fold change GGH expression: vs control untreated cells, ± SEM
End1 cells = conditions: MTT, vs untreated control; for decrease in cell viability: significant
LAMC2 [2] = experiment: LAMC2 in medium of End1 post-H2O2 treatment, ELISA; conditions: vs control untreated cells, ± SEM
EFEMP1 = conditions: End1, 100 μM H2O2, 24 h, vs control untreated cells, ± SEM
ECM1 [3] = experiment: ECM1 in medium of End1 post-H2O2 treatment, ELISA; conditions: vs control untreated cells, ± SEM
ECM1 [4] = conditions: Ect1, 200 μM H2O2, 24 h, vs control untreated cells, ± SEM
Ect1 cells = experiment: MTT assay, cell viability and proliferation after H2O2 treatment, Ect1; conditions: vs untreated control
FGA [5] = conditions: End1, 100 μM H2O2, 24 h, vs control untreated cells, ± SEM
GGH [6] = experiment: GGH in medium of End1 post-H2O2 treatment, ELISA; conditions: vs control untreated cells, ± SEM
ECM1 [7] = experiment: ECM1 in medium of Ect1 post-LPS treatment, ELISA; format: cell-based; conditions: 24 h, vs control untreated cells, ± SEM
Description: (§1) At Day 1, cell culture was removed and substituted with KSFM without growth factor supplement. Cells were then treated with increasing doses of LPS (10 μg/ml, 25 μg/ml, 50 μg/ml) at Day 2.

FGA [8] = experiment: FGA in medium of End1 post-LPS treatment, ELISA; format: cell-based; conditions: for Fold change FGA expression: 24 h, vs control untreated cells, ± SEM
Description: as §1

GGH [9] = experiment: GGH in medium of Ect1 post-LPS treatment, ELISA; format: cell-based; conditions: for Fold change GGH expression: 24 h, vs control untreated cells, ± SEM
Description: as §1

LAMC2 [10] = experiment: LAMC2 in medium of Ect1 post-LPS treatment, ELISA; format: cell-based; conditions: Ect1, 50 μg/ml LPS, 24 h, vs control untreated cells, ± SEM
Description: as §1

ECM1 [11] = experiment: ECM1 in medium of End1 post-LPS treatment, ELISA; format: cell-based; conditions: for Fold change ECM1 expression: 24 h, vs control untreated cells, ± SEM
Description: as §1

FGA [12] = experiment: FGA in medium of Ect1 post-LPS treatment, ELISA; format: cell-based; conditions: for Fold change FGA expression: 24 h, vs control untreated cells, ± SEM
Description: as §1

GGH [13] = experiment: GGH in medium of End1 post-LPS treatment, ELISA; format: cell-based; conditions: for Fold change GGH expression: 24 h, vs control untreated cells, ± SEM
Description: as §1

LAMC2 [14] = experiment: LAMC2 in medium of End1 post-LPS treatment, ELISA; format: cell-based; conditions: 24 h, vs control untreated cells, ± SEM
Description: as §1

[15] = End1, LPS treatment, dose not specified
[16] = Ect1, 3 different doses of LPS, statistically insignificant

## OO [H2O2, Hydrogen peroxide]
GGH [1]; Ect1, 200 μM H2O2, 24 h
  Fold change GGH expression: 0.73 ± 0.16 fold
GGH [1]; Ect1, 400 μM H2O2, 24 h
  Fold change GGH expression: 1.01 ± 0.25 fold
GGH [1]; Ect1, H2O2 24 h, dose not given
  GGH expression upon H2O2 treatment: remained relatively unchanged
End1 cells; 50 μM H2O2, 24 h
  effect on cell viability: no effect
End1 cells; 100 μM H2O2, 24 h
  decrease in cell viability: ~20%
End1 cells; 200 μM H2O2, 24 h
  decrease in cell viability: ~50%
End1 cells; 400 μM H2O2, 24 h
  decrease in cell viability: ~90%
LAMC2 [2]; End1, 100 μM H2O2, 24 h
  Fold change LAMC2 expression: 1.15 ± 0.17 fold
LAMC2 [2]; End1, 200 μM H2O2, 24 h
  Fold change LAMC2 expression: 0.95 ± 0.16 fold
EFEMP1
  Fold change EFEMP1 expression: 0.73 ± 0.12 fold
ECM1 [3]; End1, 100 μM H2O2, 24 h
  Fold change ECM1 expression: 1.02 ± 0.16 fold
ECM1 [3]; End1, 200 μM H2O2, 24 h
  Fold change ECM1 expression: 0.90 ± 0.07 fold
ECM1 [4]
  Fold change ECM1 expression: 1.09 ± 0.21 fold
Ect1 cells; 50 μM H2O2, 24 h
  effect on cell viability: did not affect cell viability
Ect1 cells; 100 μM H2O2, 24 h
  effect on cell viability: did not affect cell viability
Ect1 cells; 200 μM H2O2, 24 h, not statistically significant
  decrease in cell density: 20%
Ect1 cells; 400 μM H2O2, 24 h, significant
  decrease in cell viability: ~50%
FGA [5]
  Fold change FGA expression: 0.96 ± 0.21 fold
GGH [6]; End1, 100 μM H2O2, 24 h
  Fold change GGH expression: 0.75 ± 0.16 fold
GGH [6]; End1, 200 μM H2O2, 24 h
  Fold change GGH expression: 0.86 ± 0.18 fold

## Lipopolysaccharide [LPS]
ECM1 [7]; Ect1, 10 μg/ml LPS
  Fold change ECM1 expression: 0.87 ± 0.18 fold
ECM1 [7]; Ect1, 50 μg/ml LPS
  Fold change ECM1 expression: 0.81 ± 0.17 fold
FGA [8]; End1, 10 μg/ml LPS
  Fold change FGA expression: 0.90 ± 0.10 fold
FGA [8]; End1, 25 μg/ml LPS
  Fold change FGA expression: 0.92 ± 0.15 fold
FGA [8]; End1, 50 μg/ml LPS
  Fold change FGA expression: 0.78 ± 0.10 fold
FGA [8]; [15]
  FGA expression level in conditioned media: down-regulated
GGH [9]; Ect1, 10 μg/ml LPS
  Fold change GGH expression: 1.67 ± 0.40 fold
GGH [9]; Ect1, 25 μg/ml LPS
  Fold change GGH expression: 1.42 ± 0.23 fold
GGH [9]; Ect1, 50 μg/ml LPS
  Fold change GGH expression: 1.80 ± 0.52 fold
GGH [9]; [16]
  GGH expression in conditioned media: slight increases
LAMC2 [10]
  Fold change LAMC2 expression: 5.99 ± 1.86 fold
ECM1 [11]; End1, 10 μg/ml LPS
  Fold change ECM1 expression: 0.94 ± 0.14 fold
ECM1 [11]; End1, 25 μg/ml LPS
  Fold change ECM1 expression: 0.87 ± 0.11 fold
ECM1 [11]; End1, 50 μg/ml LPS
  Fold change ECM1 expression: 0.76 ± 0.11 fold
ECM1 [11]; End1, LPS treatment, dose not specified, statistically insignificant
  ECM1 expression in conditioned media: small decrease
FGA [12]; Ect1, 10 μg/ml LPS
  Fold change FGA expression: 1.05 ± 0.15 fold
FGA [12]; Ect1, 25 μg/ml LPS
  Fold change FGA expression: 1.13 ± 0.12 fold
FGA [12]; Ect1, 50 μg/ml LPS
  Fold change FGA expression: 1.19 ± 0.22 fold
FGA [12]; [16]
  FGA expression in conditioned media: slight increases
GGH [13]; End1, 10 μg/ml LPS
  Fold change GGH expression: 0.69 ± 0.15 fold
GGH [13]; End1, 25 μg/ml LPS
  Fold change GGH expression: 0.92 ± 0.19 fold
GGH [13]; End1, 50 μg/ml LPS
  Fold change GGH expression: 0.76 ± 0.13 fold
GGH [13]; [15]
  GGH expression level in conditioned media: down-regulated
LAMC2 [14]; End1, 10 μg/ml LPS
  Fold change LAMC2 expression: ~8 fold
LAMC2 [14]; End1, 25 μg/ml LPS
  Fold change LAMC2 expression: ~8 fold
LAMC2 [14]; End1, 50 μg/ml LPS
  Fold change LAMC2 expression: ~8 fold
